Measurements as given in US4562287A, “2-(4-Biphenylyl)-4-hexenoic acid and derivatives thereof having anti-inflammatory activity” (priority 1983, dated 1985).

Experiments:
[1] = system: Carragenine edema; test: Edema induced by different substances: carragenine (Table 3); type: in vivo
From the text: (§1) |Edema induced by different substances.

[2] = system: Kaolin edema; test: Edema induced by different substances: kaolin (Table 3); type: in vivo
From the text: as §1

[3] = system: Yeast edema; test: Edema induced by different substances: yeast (Table 3); type: in vivo
From the text: |Edema induced by different substances. | % edema inhibition

[4] = system: Serotonin edema; test: Edema induced by different substances: serotonin (Table 3); type: in vivo
From the text: as §1

[5] = system: Dextrose edema; test: Edema induced by different substances: dextrose (Table 3); type: in vivo
From the text: as §1

[6] = system: capillary permeability (Histamine); test: Effect on the capillary permeability, histamine; type: in vivo; conditions: 200 mg/Kg p.o., checks 21.33
From the text: (§2) |Effect on the capillary permeability

[7] = system: capillary permeability (Dextran); test: Effect on the capillary permeability, dextran; type: in vivo; conditions: 200 mg/Kg p.o., checks 14.83
From the text: as §2

[8] = system: Cotton-pellets induced granuloma; test: Cotton-pellets induced granuloma; type: in vivo; conditions: 200 mg/Kg p.o.
From the text: | Cotton-pellets induced granuloma.

[9] = system: Carragenine induced edema; test: Activity on carragenine induced edema (Table 9); type: in vivo
From the text: |Activity on carragenine induced edema.

[10] = system: Hot plate, endurance time at 52° C.; test: Analgesic activity, Hot plate (I); type: in vivo; conditions: 50 mg/Kg p.o.
Method: Dose endurance time at 52° C. over checks

[11] = system: Carragenine induced edema; test: Anti-inflammatory activity on carragenine induced edema (Table 11); type: in vivo
[12] = system: capillary permeability (Serotonin); conditions: 200 mg/Kg p.o., checks 18.16
[13] = British Patent No. 847.779; cited from earlier work
[14] = system: Carragenine induced edema; test: Carragenine induced edema, first test (Table 2); type: in vivo
From the text: |ANTI-INFLAMMATORY ACTIVITY. |Carragenine induced edema, first test.

[15] = system: Joint's diameter; test: Joint's diameter in arthritis (Table 7); type: in vivo; set-up: unit not given here
[16] = system: SH Groups in serum; test: SH groups in serum (Table 8); type: in vivo; conditions: arthritis checks 70, 77
[17] = system: erytrocytes sedimetation rate (ESR); test: Erytrocytes sedimetation rate (ESR) (Table 8); type: in vivo; conditions: arthritis checks 41, 56
[18] = system: ulcerogenic effect; conditions: dose 5 mg; cited from earlier work
[19] = system: Freund's adjuvant induced arthritis; test: Freund's adjuvant induced arthritis, edema inhibition

## CC=CCC(C(=O)O)c1ccc(-c2ccccc2)cc1 (racemic) [SCR 157, 2-(4-biphenyl)-4-hexenoic acid]
[1]; 50 mg/Kg p.o.
  % edema inhibition: 8%
[1]; 100 mg/Kg p.o.
  % edema inhibition: 43%
[1]; 200 mg/Kg p.o.
  % edema inhibition: 64%
[2]; 50 mg/Kg p.o.
  % edema inhibition: 42%
[2]; 100 mg/Kg p.o.
  % edema inhibition: 49%
[2]; 200 mg/Kg p.o.
  % edema inhibition: 57%
[3]; 50 mg/Kg p.o.
  % edema inhibition: 11%
[3]; 100 mg/Kg p.o.
  % edema inhibition: 22%
[3]; 200 mg/Kg p.o.
  % edema inhibition: 28%
[4]; 50 mg/Kg p.o.
  % edema inhibition: 0%
[4]; 100 mg/Kg p.o.
  % edema inhibition: 16%
[4]; 200 mg/Kg p.o.
  % edema inhibition: 22%
[5]; 50 mg/Kg p.o.
  % edema inhibition: 0%
[5]; 100 mg/Kg p.o.
  % edema inhibition: 8%
[5]; 200 mg/Kg p.o.
  % edema inhibition: 8%
[6]
  Effect on the capillary permeability, .0. m.micron: 20.28 m.micron
[7]
  Effect on the capillary permeability, .0. m.micron: 14.85 m.micron
[8]
  % inhibition: 29%
[9]; 50 mg/Kg p.o.
  Inhibition %: 10%
[9]; 75 mg/Kg p.o.
  Inhibition %: 31%
[9]; 112,5 mg/Kg p.o.
  Inhibition %: 24%
[10]; 1 hour
  endurance time at 52° C. over checks: 3
[10]; 2 hours
  endurance time at 52° C. over checks: 26
[11]; 50 mg/Kg p.o.
  % inhibition: 33%
[12]
  Effect on the capillary permeability, .0. m.micron: 16.57 m.micron
[13]
  anticholesterinemic and antiliphaemic properties: exhibits properties of anticholesterinemic and antiliphaemic agent

## COc1ccc2c(c1)c(CC(=O)O)c(C)n2C(=O)c1ccc(Cl)cc1 [Indomethacin]
[14]; 2.5 mg/Kg p.o.
  % inhibition: 33%
[14]; 5 mg/Kg p.o.
  % inhibition: 36%
[14]; 10 mg/Kg p.o.
  % inhibition: 48%
[15]; 1 mg/Kg p.o., 1 week, arthritis checks 0.48, 0.38
  Joint's diameter: 0.38
[15]; 1 mg/Kg p.o., 2 weeks, arthritis checks 0.71, 0.75
  Joint's diameter: 0.50
[15]; 1 mg/Kg p.o., 3 weeks, arthritis checks 0.81, 0.79
  Joint's diameter: 0.49
[15]; 1 mg/Kg p.o., 4 weeks, arthritis checks 0.85, 0.89
  Joint's diameter: 0.55
[15]; 2 mg/Kg p.o., 1 week, arthritis checks 0.48, 0.38
  Joint's diameter: 0.22
[15]; 2 mg/Kg p.o., 2 weeks, arthritis checks 0.71, 0.75
  Joint's diameter: 0.39
[15]; 2 mg/Kg p.o., 3 weeks, arthritis checks 0.81, 0.79
  Joint's diameter: 0.34
[15]; 2 mg/Kg p.o., 4 weeks, arthritis checks 0.85, 0.89
  Joint's diameter: 0.34
[16]; 1 mg/Kg p.o.
  SH groups diminution in %: 78%
[16]; 2 mg/Kg p.o.
  SH groups diminution in %: 50%
[17]; 1 mg/Kg p.o.
  E.S.R.: 38
[17]; 2 mg/Kg p.o.
  E.S.R.: 15
[11]; 5 mg/Kg p.o.
  % inhibition: 38%
[18]
  ulcerogenic effect: exhibits surely ulcerogenic effect
[19]; 1 mg/Kg p.o., 2 days
  Edema inhibition %: 49%
[19]; 1 mg/Kg p.o., 4 days
  Edema inhibition %: 7%
[19]; 1 mg/Kg p.o., 8 days
  Edema inhibition %: 27%
[19]; 1 mg/Kg p.o., 12 days
  Edema inhibition %: 58%
[19]; 1 mg/Kg p.o., 16 days
  Edema inhibition %: 60%
[19]; 1 mg/Kg p.o., 20 days
  Edema inhibition %: 37%
[19]; 1 mg/Kg p.o., 24 days
  Edema inhibition %: 57%
[19]; 2 mg/Kg p.o., 2 days
  Edema inhibition %: 49%
[19]; 2 mg/Kg p.o., 4 days
  Edema inhibition %: 35%
[19]; 2 mg/Kg p.o., 8 days
  Edema inhibition %: 51%
[19]; 2 mg/Kg p.o., 12 days
  Edema inhibition %: 48%
[19]; 2 mg/Kg p.o., 16 days
  Edema inhibition %: 71%
[19]; 2 mg/Kg p.o., 20 days
  Edema inhibition %: 73%
[19]; 2 mg/Kg p.o., 24 days
  Edema inhibition %: 71%
